Article PMC11522292, “TamGen: drug design with target-aware molecule generation through a chemical language model” (Nature Communications, 2024)

Legend:
ClpP1P2 complex in Mtb [1] = molecular target: T1, ClpP1P2 complex in Mtb (Mycobacterium tuberculosis, UniProt P9WPC5); assay: ClpP1P2 peptidase activity assay, dose-response and IC50 determination; type: biochemical
Experimental: (§1) ClpP1P2 complex in Mtb can catalyze the hydrolysis of small peptides. Following previous protocols, we measure the in vitro inhibition of ClpP peptidase activity by monitoring the cleavage of fluorogenic peptide Ac-Pro-Lys-Met-AMC[65]–[67].
(§2) The solution is pre-incubated at room temperature for 2 hours. Then, 20 μL substrate buffer with Ac-Pro-Lys-Met-AMC is added (final concentration of Ac-Pro-Lys-Met-AMC is 10 μM; reaction buffer is the same with the above). Fluorescence (Ex/Em: 380/ 440 nm) is recorded for 120 min at 37 °C.
To determine IC50, candidate inhibitors are assayed at 9 or 10 gradient concentrations. […] IC50 is determined by the change of recorded fluorescence (as RFU) and gradient dilution of inhibitors concentration. Non-linear fit (log(inhibitor) vs. normalized response) is used for IC50 curve fitting.

ClpP1P2 complex in Mtb [2] = molecular target: T1, ClpP1P2 complex in Mtb; assay: ClpP1P2 peptidase activity assay, single-dose response; type: biochemical; details: read-out: Inhibition rate relative to Bortezomib
Experimental: as §1, §2

[3] = source data Figure4b, screening hits
[4] = source data Figure4b, synthesized compounds

T1 sequence (P9WPC5 whole entry, looked up, one chain of several): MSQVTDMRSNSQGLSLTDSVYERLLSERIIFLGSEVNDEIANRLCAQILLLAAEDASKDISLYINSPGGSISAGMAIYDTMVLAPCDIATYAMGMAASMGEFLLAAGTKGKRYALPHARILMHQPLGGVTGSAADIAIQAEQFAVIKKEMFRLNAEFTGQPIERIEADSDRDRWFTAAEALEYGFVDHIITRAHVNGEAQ

| SMILES | IC50 (ClpP1P2 complex in Mtb [1]; [3]) [µM] | IC50 (ClpP1P2 complex in Mtb [1]; [4]) [µM] | further results |
| --- | --- | --- | --- |
| O=C(Nc1ccc(F)cc1)Nc1ccc(Br)c(C(F)(F)F)c1 [Analog-001] | 17.2 | – | – |
| O=C(Nc1ccccc1F)Nc1ccccc1NC(=O)c1ccccc1Cl [Analog-002] | 19.9 | – | – |
| NS(=O)(=O)c1ccc(NC(=O)Nc2cc(Cl)cc(Cl)c2)cc1 [Analog-003] | 10.1 | – | inhibition at 20 µM (ClpP1P2 complex in Mtb [2]): 48% |
| Oc1c(Cc2ccccc2)ccc2ccccc12 [Analog-004] | 19.6 | – | – |
| CN(C)S(=O)(=O)c1ccc(C(=O)N2C(=O)c3cccc(N)c3C2=O)cc1 [Analog-005] | 1.88 | – | IC50 (ClpP1P2 complex in Mtb [1]; Mtb ClpP, dose-response assay, Fig. 4b and text): 1.9 µM |
| NS(=O)(=O)c1ccc(NC(=O)Nc2ccc(Cl)c(C(F)(F)F)c2)cc1 [Syn-A003-01] | – | 20.3 | – |
| Cc1ccc(C(=O)N2C(=O)c3ccccc3C2=O)cc1 [Syn-A005-01] | – | 5.34 | – |
| CN(C)S(=O)(=O)c1ccc(C(=O)N2C(=O)c3ccccc3C2=O)cc1 [Syn-A005-02] | – | 3.4 | – |
